Structures are written as SMILES.

As usually defined, the IC50 is the point on the concentration scale where inhibition reaches its midpoint.

For the assay, the target named is T1, MAGL (Homo sapiens, UniProt Q99685).
T1 sequence (Q99685 1-303): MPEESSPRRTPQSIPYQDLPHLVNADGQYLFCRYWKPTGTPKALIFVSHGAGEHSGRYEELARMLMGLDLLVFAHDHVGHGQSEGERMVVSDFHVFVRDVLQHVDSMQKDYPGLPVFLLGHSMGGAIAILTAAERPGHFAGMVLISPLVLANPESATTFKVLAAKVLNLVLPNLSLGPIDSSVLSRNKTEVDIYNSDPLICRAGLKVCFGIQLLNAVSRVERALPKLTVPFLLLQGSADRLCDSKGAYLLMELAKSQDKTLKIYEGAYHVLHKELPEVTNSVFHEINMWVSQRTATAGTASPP
The assay can be described thus: 2-AG assay: MAGL inhibitory activity by hydrolysis of 2-arachidonoylglycerol to arachidonic acid, followed by mass spectrometry. It counts as biochemical. The settings on record: 15 min preincubation, 30 min reaction at RT, 8 μM 2-arachidonoylglycerol.
In turn, `O=C1NC2(CO1)CN(C(=O)N1CC3(CN(Cc4ccc(C(F)(F)F)nn4)C3)C1)C2` [Example 159, 2-[6-[[6-(trifluoromethyl)pyrida-zin-3-yl]methyl]-2,6-diazaspiro[3.3]heptane-2-carbonyl]-7-oxa-2,5-diazaspiro[3.4]octan-6-one] registered an IC50 of 109 nM. As for `CS(=O)(=O)c1ccc(CN2CCC3(CC2)CN(C(=O)N2CC4(CCC(=O)N4)C2)C3)cc1` [Example 160, 2-[7-(4-mesylbenzyl)-2,7-diazaspiro[3.5]nonane-2-carbonyl]-2,5-diazaspiro[3.4]octan-6-one], the IC50 worked out at 279 nM. `O=C1NC2(CO1)CN(C(=O)N1CC3(CN(Cc4cnc(C(F)(F)F)nc4)C3)C1)C2` [Example 161, 2-[6-[[2-(trifluoromethyl)pyrimi-din-5-yl]methyl]-2,6-diazaspiro[3.3]heptane-2-carbonyl]-7-oxa-2,5-diazaspiro[3.4]octan-6-one] gave an IC50 of 51.5 nM.

In turn, `O=C1NC2(CO1)CN(C(=O)N1CC3(CN(Cc4ncc(F)cc4F)C3)C1)C2` [Example 162, 2-[6-[(3,5-difluoro-2-pyridyl)methyl]-2,6-diazaspiro[3.3]heptane-2-carbonyl]-7-oxa-2,5-diazaspiro[3.4]octan-6-one] had an IC50 of 15.1 nM. As for `CS(=O)(=O)c1cccc(CN2CCC3(CC2)CN(C(=O)N2CC4(CCC(=O)N4)C2)C3)c1` [Example 163, 2-[7-(3-mesylbenzyl)-2,7-diazaspiro[3.5]nonane-2-carbonyl]-2,5-diazaspiro[3.4]octan-6-one], the figure is 2.78 nM; as for `CS(=O)(=O)c1ccc(CN2CC3(C2)CN(C(=O)N2CC4(COC(=O)N4)C2)C3)cc1` [Example 164, 2-[6-(4-mesylbenzyl)-2,6-diazaspiro[3.3]heptane-2-carbonyl]-7-oxa-2,5-diazaspiro[3.4]octan-6-one], 52.5 nM.

Consider `Cn1ncc(CC2CC3(C2)CN(C(=O)N2CC4(CCC(=O)N4)C2)C3)c1C(F)(F)F` [Example 165], for which 0.52 nM corresponded to half-maximal inhibition (IC50). In turn, `Cn1nc(CC2CC3(C2)CN(C(=O)N2CC4(CCC(=O)N4)C2)C3)cc1C(F)(F)F` [Example 166, 2-[6-[[1-methyl-5-(trifluoromethyl)pyrazol-3-yl]methyl]-2-azaspiro[3.3]heptane-2-carbonyl]-2,5-diazaspiro[3.4]octan-6-one] gave an IC50 of 1.31 nM. Take `Cn1ncc(C(F)(F)F)c1CC1CC2(C1)CN(C(=O)N1CC3(CCC(=O)N3)C1)C2` [Example 167, 2-[6-[[2-methyl-4-(trifluoromethyl)pyrazol-3-yl]methyl]-2-azaspiro[3.3]heptane-2-carbonyl]-2,5-diazaspiro[3.4]octan-6-one]: the IC50 stood at 1.72 nM. `O=C1CCC2(CN(C(=O)N3CC4(CC(Cn5nccc5C(F)(F)F)C4)C3)C2)N1` [Example 168, 2-[6-[[5-(trifluoromethyl)pyrazol-1-yl]methyl]-2-azaspiro[3.3]heptane-2-carbonyl]-2,5-diazaspiro[3.4]octan-6-one]: the IC50 came out at 2.45 nM.

On to `Cn1cc(CC2CC3(C2)CN(C(=O)N2CC4(CCC(=O)N4)C2)C3)c(C(F)(F)F)n1` [Example 169, 2-[6-[[1-methyl-3-(trifluoromethyl)pyrazol-4-yl]methyl]-2-azaspiro[3.3]heptane-2-carbonyl]-2,5-diazaspiro[3.4]octan-6-one], for which half-maximal inhibition (IC50) was put at 2.35 nM.

On to `O=C1COCC2(CN(C(=O)N3CC4(CC(Cc5ccc(C(F)(F)F)cn5)C4)C3)C2)N1` [Example 170, 2-[6-[[5-(trifluoromethyl)-2-pyridyl]methyl]-2-azaspiro[3.3]heptane-2-carbonyl]-8-oxa-2,5-diazaspiro[3.5]nonan-6-one], for which the IC50 was 7.82 nM.

`O=C1COCC2(CN(C(=O)N3CC4(CC(Cc5ncc(C(F)(F)F)cc5F)C4)C3)C2)N1` [Example 171, 2-[6-[[3-fluoro-5-(trifluoromethyl)-2-pyridyl]methyl]-2-azaspiro[3.3]heptane-2-carbonyl]-8-oxa-2,5-diazaspiro[3.5]nonan-6-one] came in with an IC50 of 1.42 nM. In the case of `O=C1COCC2(CN(C(=O)N3CC4(CC(Cc5cncc(Cl)c5)C4)C3)C2)N1` [Example 172, 2-[6-[(5-chloro-3-pyridyl)methyl]-2-azaspiro[3.3]heptane-2-carbonyl]-8-oxa-2,5-diazaspiro[3.5]nonan-6-one], the IC50 is 38.2 nM. The result for `O=C1COCC2(CN(C(=O)N3CC4(CC(Cc5cncc(C(F)(F)F)c5)C4)C3)C2)N1` [Example 173, 2-[6-[[5-(trifluoromethyl)-3-pyridyl]methyl]-2-azaspiro[3.3]heptane-2-carbonyl]-8-oxa-2,5-diazaspiro[3.5]nonan-6-one] reads 20.8 nM; that for `O=C1COCC2(CN(C(=O)N3CC4(CC(Cc5ccc(C(F)(F)F)nc5)C4)C3)C2)N1` [Example 174, 2-[6-[[6-(trifluoromethyl)-3-pyridyl]methyl]-2-azaspiro[3.3]heptane-2-carbonyl]-8-oxa-2,5-diazaspiro[3.5]nonan-6-one], 16.7 nM; that for `O=C1CCC2(CN(C(=O)N3CC4(CC(Cc5ncc(Cl)cc5F)C4)C3)C2)N1` [Example 175, 2-[6-[(5-chloro-3-fluoro-2-pyridyl)methyl]-2-azaspiro[3.3]heptane-2-carbonyl]-2,5-diazaspiro[3.4]octan-6-one], 1.69 nM. In turn, `O=C1COCC2(CN(C(=O)N3CC4(CC(Cc5ncc(F)cc5Cl)C4)C3)C2)N1` [Example 176, 2-[6-[(3-chloro-5-fluoro-2-pyridyl)methyl]-2-azaspiro[3.3]heptane-2-carbonyl]-8-oxa-2,5-diazaspiro[3.5]nonan-6-one] returned an IC50 of 3 nM. Compound `O=C1COCC2(CN(C(=O)N3CC4(CC(Cc5ccc(OC(F)(F)F)cn5)C4)C3)C2)N1` [Example 177, 2-[6-[[5-(trifluoromethoxy)-2-pyridyl]methyl]-2-azaspiro[3.3]heptane-2-carbonyl]-8-oxa-2,5-diazaspiro[3.5]nonan-6-one] yielded an IC50 of 2.01 nM. As for `O=C1COCC2(CN(C(=O)N3CC4(CC(Cc5cc(C(F)(F)F)ccn5)C4)C3)C2)N1` [Example 178, 2-[6-[[4-(trifluoromethyl)-2-pyridyl]methyl]-2-azaspiro[3.3]heptane-2-carbonyl]-8-oxa-2,5-diazaspiro[3.5]nonan-6-one], the figure is 15.4 nM; as for `O=C1CCC2(CN(C(=O)N3CC4(CC(Cc5ccc(OC(F)(F)F)nc5)C4)C3)C2)N1` [Example 179, 2-[6-[[6-(trifluoromethoxy)-3-pyridyl]methyl]-2-azaspiro[3.3]heptane-2-carbonyl]-2,5-diazaspiro[3.4]octan-6-one], 1.66 nM; as for `O=C1COCC2(CN(C(=O)N3CC4(CC(Cc5cncc(F)c5)C4)C3)C2)N1` [Example 180, 2-[6-[(5-fluoro-3-pyridyl)methyl]-2-azaspiro[3.3]heptane-2-carbonyl]-8-oxa-2,5-diazaspiro[3.5]nonan-6-one], 202 nM. On to `CS(=O)(=O)c1ccc(CC2CC3(C2)CN(C(=O)N2CC4(COCC(=O)N4)C2)C3)cc1C(F)(F)F` [Example 181, 2-[6-[[4-methylsulfonyl-3-(trifluoromethyl)phenyl]methyl]-2-azaspiro[3.3]heptane-2-carbonyl]-8-oxa-2,5-diazaspiro[3.5]nonan-6-one], for which 1.45 nM corresponded to half-maximal inhibition (IC50). `O=C1COCC2(CN(C(=O)N3CC4(CC(Cc5cccc(S(=O)(=O)C(F)(F)F)c5)C4)C3)C2)N1` [Example 182, 2-[6-[[3-(trifluoromethylsulfonyl)phenyl]methyl]-2-azaspiro[3.3]heptane-2-carbonyl]-8-oxa-2,5-diazaspiro[3.5]nonan-6-one] returned an IC50 of 485 nM.

`CS(=O)(=O)c1ccc(CC2CC3(C2)CN(C(=O)N2CC4(COCC(=O)N4)C2)C3)cc1C(F)(F)F` [Example 183] showed an IC50 of 7.31 nM.

Turning to `CS(=O)(=O)c1cc(C(F)(F)F)ccc1CC1CC2(C1)CN(C(=O)N1CC3(COCC(=O)N3)C1)C2` [Example 184, 2-[6-[[2-methylsulfonyl-4-(trifluoromethyl)phenyl]methyl]-2-azaspiro[3.3]heptane-2-carbonyl]-8-oxa-2,5-diazaspiro[3.5]nonan-6-one], the midpoint of inhibition, the IC50, lay at 210 nM. Consider `CS(=O)(=O)c1cc(C(F)(F)F)ccc1CC1CC2(C1)CN(C(=O)N1CC3(CCCC(=O)N3)C1)C2` [Example 185, 2-[6-[[2-methylsulfonyl-4-(trifluoromethyl)phenyl]methyl]-2-azaspiro[3.3]heptane-2-carbonyl]-2,5-diazaspiro[3.5]nonan-6-one], for which it took 34.5 nM to reach half-maximal inhibition (IC50). As for `O=C1CCCC2(CN(C(=O)N3CC4(CC(Cc5cccc(S(=O)(=O)C(F)(F)F)c5)C4)C3)C2)N1` [Example 186, 2-[6-[[3-(trifluoromethylsulfonyl)phenyl]methyl]-2-azaspiro[3.3]heptane-2-carbonyl]-2,5-diazaspiro[3.5]nonan-6-one], the figure is 95 nM. The result for `CS(=O)(=O)c1cccc(CN2CC3(C2)CN(C(=O)N2CC4(COC(=O)N4)C2)C3)c1` [Example 187, 2-[6-[(3-methylsulfonylphenyl)methyl]-2,6-diazaspiro[3.3]heptane-2-carbonyl]-7-oxa-2,5-diazaspiro[3.4]octan-6-one] reads 46.7 nM; that for `O=C1NC2(CO1)CN(C(=O)N1CC3(CCN(S(=O)(=O)c4ccc(C(F)(F)F)cc4F)CC3)C1)C2` [Example 189, 2-[7-[2-fluoro-4-(trifluoromethyl)phenyl]sulfonyl-2,7-diazaspiro[3.5]nonane-2-carbonyl]-7-oxa-2,5-diazaspiro[3.4]octan-6-one], 1.72 nM; that for `O=C1NC2(CO1)CN(C(=O)N1CC3(C1)CN(S(=O)(=O)c1ccccc1OC(F)(F)F)C3)C2` [Example 190, 2-[2-[2-(trifluoromethoxy)phenyl]sulfonyl-2,6-diazaspiro[3.3]heptane-6-carbonyl]-7-oxa-2,5-diazaspiro[3.4]octan-6-one], 10.4 nM.
